The record followed here is patent publication US7015325B2, “Tryptase inhibitors” (ALTANA Pharma AG, priority 1999, dated 2006).

Molecules are shown by their SMILES. Where a name gives a salt, the structure may show the parent alone.

The target of this experiment is human tryptase. The experiment is described as follows: Inhibition of human tryptase (apparent dissociation constant, chromogenic substrate tos-Gly-Pro-arg-pNA). The experiment is classed as biochemical. The settings on record: apparent dissociation constant in presence of substrate; heparin 0.1–50 μg/ml; equilibrium conditions; read-out: Kiapp. The text has this: The documented pathophysiological effects of mast cell tryptase are caused directly by the enzymatic activity of the protease. Accordingly, they are reduced or blocked by inhibitors which inhibit the enzymatic activity of the tryptase. A suitable measure for the affinity of a reversible inhibitor to the target protease is the equilibrium dissociation constant Ki of the enzyme-inhibitor complex. This Ki value can be determined via the effect of the inhibitor on the tryptase-induced cleavage of a chromogenic peptide-p-nitroanilide substrate or a fluorogenic peptide-aminomethylcoumarin substrate.
The dissociation constants for the tryptase-inhibitor complexes are determined under equilibrium conditions in accordance with the general proposals of Bieth (Bieth J G, Pathophysiological Interpretation of kinetic constants of protease inhibitors, Bull. Europ. Physiopath. Resp. 16:183–195, 1980) and the methods of Sommerhoff et al. (Sommerhoff C P et al., A Kazal-type inhibitor of human mast cell tryptase: Isolation from the medical leech Hirudo medicinalis, characterization, and sequence analysis, Biol. Chem. Hoppe-Seyler 375: 685–694, 1994).
Human tryptase is isolated from lung tissue or prepared recombinantly; the specific activity of the protease, determined by titration, is usually greater than 85% of the theoretical value. In the presence of heparin (0.1–50 μg/ml) for stabilizing the protease, constant amounts of the tryptase are incubated with increasing amounts of the inhibitors. After an equilibrium between the reaction partners has formed, the remaining enzyme activity after addition of the peptide-p-nitroanilide substrate tos-Gly-Pro-arg-pNA is determined and the cleavage of the latter is monitored at 405 nm for 3 min. Alternatively, the remaining enzymatic activity can also be determined using fluorogenic substrates. The apparent dissociation constants Kiapp (i.e. in the presence of substrate) are subsequently determined by adapting the enzyme rates to the general equation for reversible inhibitors (Morrison J F, Kinetics of the reversible inhibition of enzyme-catalyzed reactions by tight-binding inhibitors, Biochim. Biophys. Acta 185, 269–286, 1969) using non-linear regression: VI/V0=1−{Et+It+Kiapp−[(Et+It+Kiapp)^2−4EtIt]^1/2}/2Et VI and V0 are the rates in the presence and absence, respectively, of the inhibitor, and Et and It are the tryptase and inhibitor concentrations, respectively.
The apparent dissociation constants determined for the compounds according to the invention are shown in Table A below, where the numbers of the compounds correspond to the numbers of the compounds in the examples.

`NC[C@H]1CC[C@H](C(=O)N2CCN(C(=O)OCCOCC#CCOCCOC(=O)N3CCN(C(=O)[C@H]4CC[C@H](CN)CC4)CC3)CC2)CC1` [Compound 1, 1,4-Bis-[4-(trans-4-aminomethylcyclohexylcarbonyl)-1-piperazinylcarbonyl-1-oxyethyl-2-oxy]-2-butyne dihydrochloride]: the Ki is 86 nM.

Turning to `NCc1ccc(CNC(=O)N2CCN(C(=O)OCCOCC#CCOCCOC(=O)N3CCN(C(=O)NCc4ccc(CN)cc4)CC3)CC2)cc1` [Compound 2, 1,4-Bis-[4-(4-aminomethylbenzylaminocarbonyl)-1-piperazinylcarbonyl-1-oxyethyl-2-oxy]-2-butyne dihydrochloride], the Ki was 0.35 nM.

Turning to `NCc1cccc(CNC(=O)N2CCN(C(=O)OCCOCC#CCOCCOC(=O)N3CCN(C(=O)NCc4cccc(CN)c4)CC3)CC2)c1` [Compound 3, 1,4-Bis-[4-(3-aminomethylbenzylaminocarbonyl)-1-piperazinylcarbonyl-1-oxyethyl-2-oxy]-2-butyne dihydrochloride], the Ki stood at 8 nM.

`NCc1ccc(CNC(=O)N2CCN(C(=O)OCC#CC#CCOC(=O)N3CCN(C(=O)NCc4ccc(CN)cc4)CC3)CC2)cc1` [Compound 4, 1,6-Bis-[4-(4-aminomethylbenzylaminocarbonyl)-1-piperazinylcarbonyl-1-oxy]-2,4-hexadiyne dihydrochloride]: the Ki came out at 0.25 nM.

Consider `NCc1ccc(CNC(=O)N2CCN(C(=O)OCCCCC#CC#CCCCCOC(=O)N3CCN(C(=O)NCc4ccc(CN)cc4)CC3)CC2)cc1` [Compound 5, 1,12-Bis-[4-(4-aminomethylbenzylaminocarbonyl)-1-piperazinylcarbonyl-1-oxy]-5,7-dodecadiyne dihydrochloride], for which the Ki was 12 nM.

As for `NCc1cccc(CNC(=O)N2CCN(C(=O)OCCCCC#CC#CCCCCOC(=O)N3CCN(C(=O)NCc4cccc(CN)c4)CC3)CC2)c1` [Compound 6, 1,12-Bis-[4-(3-aminomethylbenzylaminocarbonyl)-1-piperazinylcarbonyl-1-oxy]-5,7-dodecadiyne dihydrochloride], the Ki stood at 1.4 nM.

Consider `NCc1cccc(CNC(=O)N2CCN(C(=O)OCC#CC#CCOC(=O)N3CCN(C(=O)NCc4cccc(CN)c4)CC3)CC2)c1` [Compound 7, 1,6-Bis-[4-(3-aminomethylbenzylaminocarbonyl)-1-piperazinylcarbonyl-1-oxy]-2,4-hexadiyne dihydrochloride], for which the Ki was found to be 8 nM.
